US8022217B2, “Compounds suitable as modulators of HDL” (Cadila Healthcare Limited, priority 2006, dated 2011)
Counter-ions that a name gives are not always drawn.

What was measured:
[1] = target: T1, recombinant CETP (Homo sapiens, UniProt P11597); test: CETP in-vitro assay (Scintillation Proximity Assay, transfer of [3H] cholesteryl ester from HDL to biotinylated LDL); format: biochemical; conditions: for inhibition at 10 µM: 10 μmole concentration
T1 sequence (P11597 18-493): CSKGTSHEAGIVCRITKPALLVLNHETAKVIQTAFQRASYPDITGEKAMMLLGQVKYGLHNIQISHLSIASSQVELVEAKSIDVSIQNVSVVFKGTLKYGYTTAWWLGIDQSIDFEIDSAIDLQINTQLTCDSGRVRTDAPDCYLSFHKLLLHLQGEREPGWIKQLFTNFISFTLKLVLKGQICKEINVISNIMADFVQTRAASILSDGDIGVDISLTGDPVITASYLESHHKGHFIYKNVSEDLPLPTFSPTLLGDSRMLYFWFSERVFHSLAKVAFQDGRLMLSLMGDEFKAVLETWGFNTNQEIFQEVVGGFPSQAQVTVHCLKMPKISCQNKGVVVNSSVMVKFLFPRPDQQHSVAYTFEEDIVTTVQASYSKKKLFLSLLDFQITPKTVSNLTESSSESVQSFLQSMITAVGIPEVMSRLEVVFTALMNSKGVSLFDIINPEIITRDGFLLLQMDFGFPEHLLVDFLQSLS
Method: This assay used a commercially available Scintillation Proximity Assay kit (Amersham TRKQ7015) with modifications for measuring CETP activity. [^3H] Cholesteryl ester HDL was mixed with non radioactive HDL prepared from human plasma at an appropriate ratio in order to ensure a proper transfer of cholesteryl esters. Transfer of [^3H] Cholesteryl esters from high density lipoprotein (HDL) to biotinylated low density lipoprotein (LDL) was measured following incubation of donor and acceptor particles in the presence of recombinant CETP. Following overnight incubation, the reaction was terminated and transfer was measured in a single step addition of streptavidin coated beads formulated in an assay terminal buffer. The rate of increase in signal was proportional to the transfer of [^3H] Cholesteryl ester by CETP.

[2] = target: T1, recombinant CETP; test: as above; format: biochemical; conditions: CETP inhibition in human plasma

SMILES | inhibition at 10 µM [1] [%] | IC50 [2] [nM] | % of CETP inhibition at 10 μmole concentration [1] [%]
CC(C)(C)c1ccc(CN(CCc2ccc(F)cc2)C(=O)c2cccc3c2NCCC3)cc1 [Compound 1, 1,2,3,4-Tetrahydro-quinoline-8-carboxylic acid (4-tert-butyl-benzyl)-(2-(4-fluoro-phenyl)-ethyl)-amide] | 43 | – | –
CC(C)(C)c1ccc(CN(CCc2ccc(F)cc2)C(=O)c2ccc(Cl)c3c2NCCC3)cc1 [Compound 7, 5-Chloro-1,2,3,4-tetrahydro-quinoline-8-carboxylic acid (4-tert-butyl-benzyl)-[2-(4-fluoro-phenyl)-ethyl]-amide] | 67 | – | –
CC(C)(C)c1ccc(CN(CCc2cccc(Cl)c2)C(=O)c2cccc3c2NCCC3)cc1 [Compound 10, 1,2,3,4-Tetrahydro-quinoline-8-carboxylic acid (4-tert-butyl-benzyl)-[2-(3-chloro-phenyl)-ethyl]-amide] | 57 | – | –
Cc1cc2c(c(C(=O)N(CCc3ccc(F)cc3)Cc3ccc(C(C)(C)C)cc3)c1)NCCC2 [Compound 13, 6-Methyl-1,2,3,4-tetrahydro-quinoline-8-carboxylic acid (4-tert-butyl-benzyl)-[2-(4-fluoro-phenyl)-ethyl]-amide] | 80 | – | –
O=C(c1cccc2c1NCCC2)N(CCc1ccc(F)cc1)Cc1ccc(C(F)(F)F)cc1 [Compound 14, 1,2,3,4-Tetrahydro-quinoline-8-carboxylic acid [2-(4-fluoro-phenyl)-ethyl]-(4-trifluoromethyl-benzyl)-amide] | 74 | – | –
COc1ccc(CCN(Cc2ccc(C(C)(C)C)cc2)C(=O)c2cccc3c2NCCC3)cc1 [Compound 17, 1,2,3,4-Tetrahydro-quinoline-8-carboxylic acid (4-tert-butyl-benzyl)-[2-(4-methoxy-phenyl)-ethyl]-amide] | 92 | – | –
CC(C)(C)c1ccc(CN(Cc2cccc(Cl)c2)C(=O)c2cccc3c2NCCC3)cc1 [Compound 21, 1,2,3,4-Tetrahydro-quinoline-8-carboxylic acid (4-tert-butyl-benzyl)-(3-chloro-benzyl)-amide] | 77 | – | –
CC(C)(C)c1ccc(CN(CCc2ccccc2F)C(=O)c2cccc3c2NCCC3)cc1 [Compound 22, 1,2,3,4-Tetrahydro-quinoline-8-carboxylic acid (4-tert-butyl-benzyl)-[2-(2-fluoro-phenyl)-ethyl]-amide] | 94 | 455 | –
CC(C)(C)c1ccc(CN(CCc2ccc(F)cc2)C(=O)c2cc(F)cc3c2NCCC3)cc1 [Compound 24, 6-Fluoro-1,2,3,4-tetrahydro-quinoline-8-carboxylic acid (4-tert-butyl-benzyl)-[2-(4-fluoro-phenyl)-ethyl]-amide] | 76 | – | –
CCN(CC)c1ccc(CCN(Cc2ccc(C(C)(C)C)cc2)C(=O)c2cccc3c2NCCC3)cc1 [Compound 28, 1,2,3,4-Tetrahydro-quinoline-8-carboxylic acid (4-tert-butyl-benzyl)-[2-(4-diethylamino-phenyl)-ethyl]-amide] | 80 | – | –
Cc1ccc(CN(CCc2ccc(Cl)c(Cl)c2)C(=O)c2cccc3c2NCCC3)cc1 [Compound 29, 1,2,3,4-Tetrahydro-quinoline-8-carboxylic acid [2-(3,4-dichloro-phenyl)-ethyl]-(4-methyl-benzyl)-amide] | 83 | – | –
Cc1cc2c(c(C(=O)N(CCc3ccc(Cl)c(Cl)c3)Cc3ccc(C(C)(C)C)cc3)c1)NCCC2 [Compound 31, 6-Methyl-1,2,3,4-tetrahydro-quinoline-8-carboxylic acid (4-tert-butyl-benzyl)-[2-(3,4-dichloro-phenyl)-ethyl]-amide] | 82 | – | –
CC(C)(C)c1ccc(CN(CCc2ccc(Cl)c(Cl)c2)C(=O)c2cc(F)cc3c2NCCC3)cc1 [Compound 32, 6-Fluoro-1,2,3,4-tetrahydro-quinoline-8-carboxylic acid (4-tert-butyl-benzyl)-[2-(3,4-dichloro-phenyl)-ethyl]-amide] | 82 | – | –
CC(C)(C)c1ccc(CN(CCc2ccc(Cl)c(Cl)c2)C(=O)c2cc(Cl)cc3c2NCCC3)cc1 [Compound 35, 6-Chloro-1,2,3,4-tetrahydro-quinoline-8-carboxylic acid (4-tert-butyl-benzyl)-[2-(3,4-dichloro-phenyl)-ethyl]-amide] | 85 | – | –
CC(C)(C)c1ccc(CN(CCc2cccc3ccccc23)C(=O)c2cccc3c2NCCC3)cc1 [Compound 37, 1,2,3,4-Tetrahydro-quinoline-8-carboxylic acid (4-tert-butyl-benzyl)-(2-naphthalen-1-yl-ethyl)-amide] | 86 | – | –
CC(C)(C)c1ccc(CN(CCc2ccc3c(c2)OCO3)C(=O)c2cccc3c2NCCC3)cc1 [Compound 38, 1,2,3,4-Tetrahydro-quinoline-8-carboxylic acid (2-benzo[1,3]dioxol-5-yl-ethyl)-(4-tert-butyl-benzyl)-amide] | 78 | – | –
CC(C)(C)c1ccc(CN(CCc2ccc(F)c(F)c2)C(=O)c2cc(Cl)cc3c2NCCC3)cc1 [Compound 40, 6-Chloro-1,2,3,4-tetrahydro-quinoline-8-carboxylic acid (4-tert-butyl-benzyl)-[2-(3,4-difluoro-phenyl)-ethyl]-amide] | 89 | – | –
CC(C)(C)c1ccc(CN(CCc2ccc(O)cc2)C(=O)c2cccc3c2NCCC3)cc1 [Compound 42, 1,2,3,4-Tetrahydro-quinoline-8-carboxylic acid (4-tert-butyl-benzyl)-[2-(4-hydroxy-phenyl)-ethyl]-amide] | 99 | – | –
COc1ccc(CCN(Cc2ccc(C(C)(C)C)cc2)C(=O)c2cccc3c2NCCC3)cc1OC [Compound 43, 1,2,3,4-Tetrahydro-quinoline-8-carboxylic acid (4-tert-butyl-benzyl)-[2-(3,4-dimethoxy-phenyl)-ethyl]-amide] | 80 | – | –
CC(C)(C)c1ccc(CN(CCc2ccc(Cl)c(F)c2)C(=O)c2cc(Cl)cc3c2NCCC3)cc1 [Compound 45, 6-Chloro-1,2,3,4-tetrahydro-quinoline-8-carboxylic acid (4-tert-butyl-benzyl)-[2-(4-chloro-3-fluoro-phenyl)-ethyl]-amide] | 88 | – | –
CC(C)(C)c1ccc(CN(CCc2ccc(O[Si](C)(C)C)cc2)C(=O)c2cccc3c2NCCC3)cc1 [Compound 47, 1,2,3,4-Tetrahydro-quinoline-8-carboxylic acid (4-tert-butyl-benzyl)-[2-(4-trimethylsilanyloxy-phenyl)-ethyl]-amide] | 76 | 167 | –
CC(C)(C)c1ccc(CN(CCc2ccc(Cl)c(Cl)c2)C(=O)c2cccc3c2NCCC3)cc1 [Compound 48, 1,2,3,4-Tetrahydro-quinoline-8-carboxylic acid (4-tert-butyl-benzyl)-[2-(3,4-dichloro-phenyl)-ethyl]-amide; hydrochloride salt] | 79 | – | –
CC(C)(C)c1ccc(CN(CCc2ccc(Cl)c(Cl)c2)C(=O)c2cc(F)cc3c2NCCC3)cc1.Cl [Compound 50, 6-Fluoro-1,2,3,4-tetrahydro-quinoline-8-carboxylic acid (4-tert-butyl-benzyl)-[2-(3,4-dichloro-phenyl)-ethyl]-amide; hydrochloride salt] | – | 30 | 90
